Results: patent publication US20100184596A1, “METHOD FOR THE CONTROL OF WEEDS IN TURF” (SYNGENTA CROP PROTECTION, INC., priority 2007, published 2010)

Key:
Assay type in all cases: in vivo
Zoysiagrass v. Empire = assay: Phytotoxicity in combination with safeners, post emergence spray (Table B4.1); conditions: no safener, 100 g ai/ha
Experimental: (§1) The phytotoxicity to turfgrass of the compound of formula I in combination with various safeners was tested. The combinations were applied by post emergence spray application. Percentage phytotoxicity assessments were taken at various timepoints. The safeners tested in these trials were cloquintocet-mexyl, cyprosulfamide, a compound of formula 2.3, and isoxadifen-ethyl.

Bermudagrass = assay: Phytotoxicity via post emergence spray application (Table B2.5)
Experimental: (§2) The phytotoxicity of the compound of formula I to turfgrass species was tested. The compound was applied via post emergence spray to a range of warm and cool season turfgrass species at various rates and spray treatment treatment regimes. Percentage phytotoxicity assessments were taken at various timepoints.

St. Augustinegrass = assay: Phytotoxicity via post emergence spray application (Table B2.1)
Experimental: as §2

[1] = tested on: Hydrocotyle sp. (dollarweed); assay: Weed control in combination with safeners, post emergence spray, in St. Augustinegrass v. Delmar (Table B7.1); conditions: no safener, 100 g ai/ha
Experimental: The weed control efficacy of the compound of formula I in combination with various safeners was tested. The combinations were applied by post emergence spray application. Percentage weed control assessments were taken at various timepoints.

[2] = tested on: Taraxacum officinale (dandelion); assay: Weed control via post emergence spray, in perennial ryegrass/fine fescue mix (Table B5.5)
Experimental: The weed control efficacy of the compound of formula I was tested. The compound was applied via post emergence spray to a range of weeds, at various rates and spray treatment treatment regimes. Percentage weed control assessments were taken at various timepoints.

Bluegrass/fescue mix = assay: Phytotoxicity via post emergence spray application (Table B2.7); conditions: 1 appl
Experimental: as §2

[3] = tested on: Bermudagrass v. Tifway 419; assay: Phytotoxicity via post emergence spray application (Table B2.3)
Experimental: as §2

turfgrass = assay: Example B2, conclusion in words; conditions: spray
Experimental: as §2

[4] = tested on: St. Augustinegrass v. Floratam; assay: Phytotoxicity in combination with safeners, post emergence spray (Table B4.2); conditions: no safener, 100 g ai/ha
Experimental: as §1

COCCOCc1nc(C(F)(F)F)ccc1C(=O)C1=C(O)C2CCC(C2)C1=O (stereo not shown) [Formula I, 4-Hydroxy-3-[2-(2-methoxyethoxymethyl)-6-trifluoromethylpyridine-3-carbonyl]-bicyclo[3.2.1]oct-3-en-2-one]
% phytotoxicity (Zoysiagrass v. Empire; 6 DAT): 11.70% | % phytotoxicity (Zoysiagrass v. Empire; 12 DAT): 63.30% | % phytotoxicity (Zoysiagrass v. Empire; 19 DAT): 68.30% | % phytotoxicity (Zoysiagrass v. Empire; 27 DAT): 51.70% | % phytotoxicity (Zoysiagrass v. Empire; 35 DAT): 40.00% | % phytotoxicity (Bermudagrass; 1 appl, 140 g ai/ha, 7 DAT): 38.75% | % phytotoxicity (Bermudagrass; 1 appl, 140 g ai/ha, 14 DAT): 18.75% | % phytotoxicity (Bermudagrass; 1 appl, 140 g ai/ha, 21 DAT): 15.00% | % phytotoxicity (Bermudagrass; 1 appl, 140 g ai/ha, 32 DAT): 13.75% | % phytotoxicity (Bermudagrass; 1 appl, 140 g ai/ha, 35 DAT): 13.75% | % phytotoxicity (Bermudagrass; 1 appl, 140 g ai/ha, 42 DAT): 7.50% | % phytotoxicity (Bermudagrass; 1 appl, 140 g ai/ha, 49 DAT): 6.25% | % phytotoxicity (Bermudagrass; 1 appl, 280 g ai/ha, 7 DAT): 38.75% | % phytotoxicity (Bermudagrass; 1 appl, 280 g ai/ha, 14 DAT): 28.75% | % phytotoxicity (Bermudagrass; 1 appl, 280 g ai/ha, 21 DAT): 12.50% | % phytotoxicity (Bermudagrass; 1 appl, 280 g ai/ha, 32 DAT): 15.00% | % phytotoxicity (Bermudagrass; 1 appl, 280 g ai/ha, 35 DAT): 15.00% | % phytotoxicity (Bermudagrass; 1 appl, 280 g ai/ha, 42 DAT): 8.75% | % phytotoxicity (Bermudagrass; 1 appl, 280 g ai/ha, 49 DAT): 6.25% | % phytotoxicity (Bermudagrass; 2 appl, 140 g ai/ha, 7 DAT): 30.00% | % phytotoxicity (Bermudagrass; 2 appl, 140 g ai/ha, 14 DAT): 26.25% | % phytotoxicity (Bermudagrass; 2 appl, 140 g ai/ha, 21 DAT): 15.00% | % phytotoxicity (Bermudagrass; 2 appl, 140 g ai/ha, 32 DAT): 68.75% | % phytotoxicity (Bermudagrass; 2 appl, 140 g ai/ha, 35 DAT): 35.00% | % phytotoxicity (Bermudagrass; 2 appl, 140 g ai/ha, 42 DAT): 15.00% | % phytotoxicity (Bermudagrass; 2 appl, 140 g ai/ha, 49 DAT): 28.75% | % phytotoxicity (Bermudagrass; 2 appl, 280 g ai/ha, 7 DAT): 42.50% | % phytotoxicity (Bermudagrass; 2 appl, 280 g ai/ha, 14 DAT): 36.25% | % phytotoxicity (Bermudagrass; 2 appl, 280 g ai/ha, 21 DAT): 18.75% | % phytotoxicity (Bermudagrass; 2 appl, 280 g ai/ha, 32 DAT): 75.00% | % phytotoxicity (Bermudagrass; 2 appl, 280 g ai/ha, 35 DAT): 65.00% | % phytotoxicity (Bermudagrass; 2 appl, 280 g ai/ha, 42 DAT): 26.25% | % phytotoxicity (Bermudagrass; 2 appl, 280 g ai/ha, 49 DAT): 30.00% | % phytotoxicity (St. Augustinegrass; 1 appl, 140 g ai/ha, 8 DAT): 36.67% | % phytotoxicity (St. Augustinegrass; 1 appl, 140 g ai/ha, 14 DAT): 28.33% | % phytotoxicity (St. Augustinegrass; 1 appl, 140 g ai/ha, 29 DAT): 0.00% | % phytotoxicity (St. Augustinegrass; 1 appl, 140 g ai/ha, 35 DAT): 0.00% | % phytotoxicity (St. Augustinegrass; 1 appl, 140 g ai/ha, 43 DAT): 0.00% | % phytotoxicity (St. Augustinegrass; 1 appl, 140 g ai/ha, 51 DAT): 0.00% | % phytotoxicity (St. Augustinegrass; 1 appl, 280 g ai/ha, 8 DAT): 40.00% | % phytotoxicity (St. Augustinegrass; 1 appl, 280 g ai/ha, 14 DAT): 43.33% | % phytotoxicity (St. Augustinegrass; 1 appl, 280 g ai/ha, 29 DAT): 0.00% | % phytotoxicity (St. Augustinegrass; 1 appl, 280 g ai/ha, 35 DAT): 0.00% | % phytotoxicity (St. Augustinegrass; 1 appl, 280 g ai/ha, 43 DAT): 0.00% | % phytotoxicity (St. Augustinegrass; 1 appl, 280 g ai/ha, 51 DAT): 0.00% | % phytotoxicity (St. Augustinegrass; 2 appl, 140 g ai/ha, 8 DAT): 43.33% | % phytotoxicity (St. Augustinegrass; 2 appl, 140 g ai/ha, 14 DAT): 40.00% | % phytotoxicity (St. Augustinegrass; 2 appl, 140 g ai/ha, 29 DAT): 0.00% | % phytotoxicity (St. Augustinegrass; 2 appl, 140 g ai/ha, 35 DAT): 28.33% | % phytotoxicity (St. Augustinegrass; 2 appl, 140 g ai/ha, 43 DAT): 8.33% | % phytotoxicity (St. Augustinegrass; 2 appl, 140 g ai/ha, 51 DAT): 1.67% | % phytotoxicity (St. Augustinegrass; 2 appl, 280 g ai/ha, 8 DAT): 41.67% | % phytotoxicity (St. Augustinegrass; 2 appl, 280 g ai/ha, 14 DAT): 51.67% | % phytotoxicity (St. Augustinegrass; 2 appl, 280 g ai/ha, 29 DAT): 0.00% | % phytotoxicity (St. Augustinegrass; 2 appl, 280 g ai/ha, 35 DAT): 30.00% | % phytotoxicity (St. Augustinegrass; 2 appl, 280 g ai/ha, 43 DAT): 11.67% | % phytotoxicity (St. Augustinegrass; 2 appl, 280 g ai/ha, 51 DAT): 5.00% | % control ([1]; 7 DAT): 41.70% | % control ([1]; 11 DAT): 61.70% | % control ([1]; 18 DAT): 61.70% | % control ([2]; 1 appl, 140 g ai/ha, 14 DAT): 32.50% | % control ([2]; 1 appl, 140 g ai/ha, 21 DAT): 87.50% | % control ([2]; 1 appl, 280 g ai/ha, 14 DAT): 37.50% | % control ([2]; 1 appl, 280 g ai/ha, 21 DAT): 90.00% | % control ([2]; 2 appl, 140 g ai/ha, 14 DAT): 47.50% | % control ([2]; 2 appl, 140 g ai/ha, 21 DAT): 87.50% | % control ([2]; 2 appl, 280 g ai/ha, 14 DAT): 41.25% | % control ([2]; 2 appl, 280 g ai/ha, 21 DAT): 90.00% | % phytotoxicity (Bluegrass/fescue mix; 10 g ai/ha, 7 DAT): 0.00% | % phytotoxicity (Bluegrass/fescue mix; 10 g ai/ha, 14 DAT): 0.00% | % phytotoxicity (Bluegrass/fescue mix; 10 g ai/ha, 22 DAT): 0.00% | % phytotoxicity (Bluegrass/fescue mix; 10 g ai/ha, 29 DAT): 0.00% | % phytotoxicity (Bluegrass/fescue mix; 10 g ai/ha, 46 DAT): 0.00% | % phytotoxicity (Bluegrass/fescue mix; 20 g ai/ha, 7 DAT): 0.00% | % phytotoxicity (Bluegrass/fescue mix; 20 g ai/ha, 14 DAT): 0.00% | % phytotoxicity (Bluegrass/fescue mix; 20 g ai/ha, 22 DAT): 0.00% | % phytotoxicity (Bluegrass/fescue mix; 20 g ai/ha, 29 DAT): 0.00% | % phytotoxicity (Bluegrass/fescue mix; 20 g ai/ha, 46 DAT): 0.00% | % phytotoxicity (Bluegrass/fescue mix; 40 g ai/ha, 7 DAT): 0.00% | % phytotoxicity (Bluegrass/fescue mix; 40 g ai/ha, 14 DAT): 0.00% | % phytotoxicity (Bluegrass/fescue mix; 40 g ai/ha, 22 DAT): 0.00% | % phytotoxicity (Bluegrass/fescue mix; 40 g ai/ha, 29 DAT): 0.00% | % phytotoxicity (Bluegrass/fescue mix; 40 g ai/ha, 46 DAT): 0.00% | % phytotoxicity (Bluegrass/fescue mix; 80 g ai/ha, 7 DAT): 0.00% | % phytotoxicity (Bluegrass/fescue mix; 80 g ai/ha, 14 DAT): 0.00% | % phytotoxicity (Bluegrass/fescue mix; 80 g ai/ha, 22 DAT): 0.00% | % phytotoxicity (Bluegrass/fescue mix; 80 g ai/ha, 29 DAT): 0.00% | % phytotoxicity (Bluegrass/fescue mix; 80 g ai/ha, 46 DAT): 0.00% | % phytotoxicity (Bluegrass/fescue mix; 160 g ai/ha, 7 DAT): 0.00% | % phytotoxicity (Bluegrass/fescue mix; 160 g ai/ha, 14 DAT): 2.50% | % phytotoxicity (Bluegrass/fescue mix; 160 g ai/ha, 22 DAT): 0.00% | % phytotoxicity (Bluegrass/fescue mix; 160 g ai/ha, 29 DAT): 0.00% | % phytotoxicity (Bluegrass/fescue mix; 160 g ai/ha, 46 DAT): 0.00% | % phytotoxicity ([3]; 1 appl, 140 g ai/ha, 8 DAT): 36.25% | % phytotoxicity ([3]; 1 appl, 140 g ai/ha, 14 DAT): 28.75% | % phytotoxicity ([3]; 1 appl, 140 g ai/ha, 29 DAT): 1.25% | % phytotoxicity ([3]; 1 appl, 140 g ai/ha, 35 DAT): 0.00% | % phytotoxicity ([3]; 1 appl, 140 g ai/ha, 43 DAT): 0.00% | % phytotoxicity ([3]; 1 appl, 140 g ai/ha, 51 DAT): 0.00% | % phytotoxicity ([3]; 1 appl, 140 g ai/ha, 60 DAT): 0.00% | % phytotoxicity ([3]; 1 appl, 280 g ai/ha, 8 DAT): 35.00% | % phytotoxicity ([3]; 1 appl, 280 g ai/ha, 14 DAT): 52.50% | % phytotoxicity ([3]; 1 appl, 280 g ai/ha, 29 DAT): 1.25% | % phytotoxicity ([3]; 1 appl, 280 g ai/ha, 35 DAT): 0.00% | % phytotoxicity ([3]; 1 appl, 280 g ai/ha, 43 DAT): 0.00% | % phytotoxicity ([3]; 1 appl, 280 g ai/ha, 51 DAT): 0.00% | % phytotoxicity ([3]; 1 appl, 280 g ai/ha, 60 DAT): 0.00% | % phytotoxicity ([3]; 2 appl, 140 g ai/ha, 8 DAT): 26.25% | % phytotoxicity ([3]; 2 appl, 140 g ai/ha, 14 DAT): 31.25% | % phytotoxicity ([3]; 2 appl, 140 g ai/ha, 29 DAT): 0.00% | % phytotoxicity ([3]; 2 appl, 140 g ai/ha, 35 DAT): 30.00% | % phytotoxicity ([3]; 2 appl, 140 g ai/ha, 43 DAT): 18.75% | % phytotoxicity ([3]; 2 appl, 140 g ai/ha, 51 DAT): 7.50% | % phytotoxicity ([3]; 2 appl, 140 g ai/ha, 60 DAT): 0.00% | % phytotoxicity ([3]; 2 appl, 280 g ai/ha, 8 DAT): 36.25% | % phytotoxicity ([3]; 2 appl, 280 g ai/ha, 14 DAT): 52.50% | % phytotoxicity ([3]; 2 appl, 280 g ai/ha, 29 DAT): 3.75% | % phytotoxicity ([3]; 2 appl, 280 g ai/ha, 35 DAT): 28.75% | % phytotoxicity ([3]; 2 appl, 280 g ai/ha, 43 DAT): 22.50% | % phytotoxicity ([3]; 2 appl, 280 g ai/ha, 51 DAT): 8.75% | % phytotoxicity ([3]; 2 appl, 280 g ai/ha, 60 DAT): 0.00% | phytotoxicity to turfgrass, in words (turfgrass; applied at low rates): levels of phytotoxicity to turfgrass are acceptable | phytotoxicity by turfgrass type, in words (turfgrass; cool season versus warm season species): lower on cool season turfgrass species | % phytotoxicity ([4]; 9 DAT): 46.70% | % phytotoxicity ([4]; 13 DAT): 50.00% | % phytotoxicity ([4]; 19 DAT): 11.70% | % phytotoxicity ([4]; 25 DAT): 5.00%
